Legend:
[1] = test system: blood brain barrier in vitro 3D model (co-cultured brain endothelial cells, pericytes and astrocytes); assay: Apparent BBB permeability in 3D in vitro blood brain barrier model; assay type: in vitro ADME, human; conditions: 3D BBB model, at 30 minutes
Description: (§1) Hydroxy UreaMethyl Acylfulvene having a negative chirality or LP-184 permeates the blood brain barrier in vitro 3D model, which closely recapitulates the human blood brain barrier. This model mimics transport properties of the BBB due to the formation of tight junctions, higher expression of specific carriers, and/or great cell viability. This 3D in vitro model of the BBB created by co-culturing brain endothelial cells, with pericytes and astrocytes layered in an insert, improves endothelial cell polarization, and enhances the formation of tight junctions, provides better endothelial cell-to-cell contact that is important for barrier development, and prevents the dilution of secreted neurotrophic factors. These conditions collectively lead to the development of an in vitro model that mimics the BBB.
(§2) This assay leverages the novel 3D BBB model that allows studying both compound transport across the barrier as well as the effect of compounds on the structure and function of the BBB. […] LP-184 was as effective as the standard of care drug TMZ in penetrating the blood brain barrier. Apparent BBB permeability measured for TMZ was 1.72*10^−4 cm/s at 30 minutes and for LP-184 was 1.53*10^−4 cm/s at 30 minutes (FIG. 1).

[2] = test system: blood brain barrier in vitro 3D model (co-cultured brain endothelial cells, pericytes and astrocytes); assay: Impact on cell viability and BBB integrity in 3D BBB model; assay type: cell-based, human; conditions: 3D BBB model, compound treatment
Description: as §1, §2

[3] = Pharmacokinetics of LP-184 in plasma, normal brain and brain tumor; assay type: in vivo, mice
[4] = test system: 3D models of patient-derived xenograft (PDX) derived brain metastases of primary lung and breast cancers; assay: Potency in 3D models of PDX-derived brain metastases; assay type: cell-based; conditions: 72-hour treatment period, various brain metastasis models, range over models and testing conditions
[5] = Apparent BBB permeability in 3D in vitro blood brain barrier model; assay type: in vitro ADME, human; conditions: human, 3D BBB model
Description: as §1, §2

[6] = Contralateral Normal Brain, 4 mg/kg IV
[7] = Peritumoral Normal Brain, 4 mg/kg IV

CC1=C(CN(O)C(N)=O)C2=C(C)C3(CC3)[C@@](C)(O)C(=O)C2=C1 [LP-184, Hydroxy UreaMethyl Acylfulvene]
Apparent BBB permeability [1]: 1.53*10^−4 cm/s
BBB integrity [2]: BBB integrity was not compromised
Impact on cell viability [2]: insignificant impact on cell viability
Brain Tissue/Plasma Ratio ([3]; Brain Tumor, 4 mg/kg IV): 0.200
Half-Life ([3]; Brain Tumor, 4 mg/kg IV): 16.9 min
Tmax ([3]; Brain Tumor, 4 mg/kg IV): 5 min
Brain Tissue/Plasma Ratio [3, 6]: 0.077
Half-Life [3, 6]: 26.6 min
Tmax [3, 6]: 15 min
AUC0-t ([3]; Contralateral Normal Brain, 4 mg/kg IV, Mean ± SEM): 123 ± 15.9 ng·h/g
Brain Tissue/Plasma Ratio [3, 7]: 0.103
Half-Life [3, 7]: 23 min
Tmax [3, 7]: 15 min
AUC0-t ([3]; Peritumoral Normal Brain, 4 mg/kg IV, Mean ± SEM): 165 ± 11.6 ng·h/g
Half-Life ([3]; Plasma, 4 mg/kg IV): 14.2 min
Tmax ([3]; Plasma, 4 mg/kg IV): 5 min
AUC0-t ([3]; Plasma, 4 mg/kg IV, Mean ± SEM): 1.592 ± 0.0487 µg·h/mL
Cmax ([3]; Plasma, 4 mg/kg IV, Mean ± SEM): 3438 ± 125^ ng/ml
brain tumor exposure relative to plasma ([3]; based on AUC): ~20%
brain tumor exposure compared to normal brain ([3]; higher in brain tumor): ~2 fold
clearance ([3]; mice with tumors): 2.389 L/h/kg
clearance ([3]; non-tumored mice): 5.284 L/h/kg
IC50 [4]: 0.088 to 4.28 µM

Cn1nnc2c(C(N)=O)ncn2c1=O [TMZ, Temozolomide, reference compound]
Papp at 30 min [5]: 1720 nm/s
